Patent publication US4855497A, “Novel diamine derivatives” (Chugai Seiyaku Kabushiki Kaisha, priority 1985, dated 1989)

Tests used:
[1] = system: Chloroform-Induced Arrythmia; assay: Activity against chloroform-induced arrythmia in rats (prevention of ventricular fibrillation); assay type: in vivo, Sprague-Dowley male rats; conditions: 30 min prior to chloroform; for responders at 1 mg/kg: Rattus norvegicus, po, 0.5 h, not starved rats, 1 mg/kg P.O., read-out: Percent prevention (ventricular fibrillation), not starved
Description: Activity Aganist Chloroform-Induced Arrythmia in Rats
The following procedures were substantially in accordance with the method of Erker and Baker (Arch. Int. Pharmacodyn., 243, 97-102, 1980). Aminophylline (20 mg/kg) was injected intramuscularly into two groups of Sprague-Dowley male rats (3-4 wk. old, 7 animals per group) weighing about 100 g on average, one group having been starved for 24 hours and the other group not starved. Thirty minutes after the injection, the animals were put into a 4,000-ml glass beaker with a lid that contained gauze impregnated with […] of chloroform. Fifty minutes later, the animals were recovered from the beaker and their chests were incised to check their hearts for the presence of ventricular fibrillation. The features of their cardiac rhythm were examined by the electrocardiogram. When no distinct fibrillation was observed, the heart was touched with tweezers. The heart was identified as fibrillar when rapid irregular twitchings occured on the surface of ventricles and continued for at least 5 seconds after chest incision or mechanical stimulation.
Selected compounds suspended in 3% gum arabic were administered in various doses to the rats either intraperitoneally (i.P.) or perorally (P.O.) 30 minutes prior to treatment with chloroform. The percent prevention of ventricular fibrillation was determined for each rat. Only a 3% gum arabic solution was administered to the control group.

[2] = system: Ouabain-Induced Arrythmia; assay: Activity against ouabain-induced arrythmia in guinea pigs; assay type: in vivo, Hartly male guinea pigs; conditions: ouabain 5 μg/kg/min; for Time required for ventricular extrasystole to occur: untreated 28.5 min; for Time required for ventricular fibrillation to occur: untreated 35.1 min; for Time required for cardiac arrest to occur: untreated 41.2 min
Description: Activity Against Ouabain-Induced Arrythmia in Guinea Pigs
Hartly male guinea pigs (5-6 wk. old, two animals per group) weighing about 350 g on average were anesthetized by intraperitoneal administration of 1.2 g/kg of urethane. A polyethylene cannula was inserted into both the cervical vein and the carotid artery; the drug was administered through the cervical vein while the blood pressure was measured at the carotid artery. A selected test compound was administered 5 minutes before the sustained intravenous infusion of the ouabain solution (5 μg/kg/min) as described in J. Pharmacol. Exp. Ther., 136, 227, 1962). Identification of arrythmia was made by the ECG in the second induction period; the appearance of a QRS complex with sharply downward deflictions was used as an indication of ventricular arrythmia and observation was continued until ventricular fibrillation and cardiac arrest appeared. The results are shown in Table 4 in terms of the times required for ventricular extrasystole, ventricular fibrillation and cardiac arrest to occur.

[3] = system: Aconitine-Induced Arrythmia; assay: Activity against aconitine-induced arrythmia in rats; assay type: in vivo, Sprague-Dowley male rats; conditions: aconitine 1 μg/kg/min; for Time required for ventricular extrasystole to occur: untreated 14.3 min; for Time required for ventricular fibrillation to occur: untreated 35.3 min
Description: Activity Against Aconitine-Induced Arrythmia in Rats
Using Sprague-Dowley male rats (9-10 wk. old, two animals per group) weighing about 350 g on average, the following experiment was conducted substantially in compliance with the method of Vargftig et al. (Europ. J. Pharmacol., 6, 49, 1969).
The animals were anesthetized by intraperitoneal administration of 1 g/kg of urethane. A polyethylene cannula was inserted into both the femoral artery and vein of each animal; the drug was administered through the femoral vein while the blood pressure was measured at the femoral artery.
While the aconitine solution was continuously infused into the vein at a rate of 1 μg/kg/min, a selected compound was administered intravenously at 5-minute intervals. In order to prevent the aconitine-induced dyspnea from interfering with the experimental results, 0.2 mg/kg of d-tubocurarine was administered intravenously to each animal, which then was subjected to artificial respiration through a cannula inserted into the trachea (80 breathings/min, with 4 ml of air supplied by a single ventillation).
Identification of arrythmia was made by the ECG in the second induction period; the appearance of a QRS complex with sharply downward deflections was used as an indication of ventricular arrythmia and observation was continued until ventricular fibrillation appeared. The results are shown in Table 3 in terms of the times required for ventricular extrasystole and ventricular fibrillation to occur.

Acetylcholine = assay: Activity against acetylcholine (I): inhibition of acetylcholine-induced contraction of isolated ilea; parameters: species or system SD/Slc male rats; conditions: 10^-4 M; 10^-6 M acetylcholine; isolated rat ilea
Description: Activity Against Acetylcholine (I)
SD/Slc male rats (10-mo. old, four animals per group) were clubbed dead and their ilea were immediately extracted. The ilea were suspended under a load of 1 g in a Krebs-Henseleit solution oxygenated with a mixture of 95% O2 +5% CO2 at 27° C., and the ileal reaction was measured isotonically.
The anti-cholinergic activity of each of the compounds tested was determined in terms of percent inhibition against the contractive reaction of 10^-6 M of acetylcholine (causing 60-70% of the maximum contractive reaction of acetylcholine).

Blood Sugar Level = assay: Effect on blood sugar level; assay type: in vivo, SD/Slc male rats; conditions: starved overnight
Description: Effect on Blood Sugar Level
After starving SD/Slc male rats (body weight, 250 g; 6 animals per group) overnight, 20-μl blood samples were drawn from the tail vein of each rat while it was not anesthetized. Records were taken of the sugar level in each blood sample. A selected compound of the present invention was suspended in 3% gum arabic and the suspension was administered perorally to each rat in an amount of 50 or 200 mg/kg. At 2, 4 and 6 hours of the administration, blood samples were taken and their blood sugar levels were measured. Measurements of blood sugar levels were conducted with a New Blood Sugar Test (Boehringer, Mannheim).
To the control group, a 3% gum arabic solution was administered, and diisopyramide was administered as a comparative drug.

[4] = system: sleeping induced by hexobarbital; assay: Effect on the time of sleeping induced by hexobarbital; assay type: in vivo, ddY/Slc male rats; conditions: 5 mg/kg perorally; ** p < 0.05 vs untreated (53.9 ± 2.7)
Description: Effect on the Time of Sleeping Induced by Hexobarbital
A selected compound of the present invention was administered perorally to ddY/Slc male rats (5-6 wk. old, 10 animals per group) in an amount of 50 or 100 mg/kg. One hour later, […] of hexobarbital was administered intraperitoneally to each animal, thereby causing the loss of orthogonal reflex. The time required for the recovery of orthogonal reflex was measured for each animal.
As comparative drugs, 50 or 100 mg/kg of disopyramide and 5 mg/kg of diazepam were administered perorally.

[5] = peroral, clinical; cited from earlier work

Cc1cccc(C)c1NC(=O)CCNCCCN(C)C [Compound No. 2, 3-(dimethylaminopropylamino)-2',6'-dimethylpropionanilide]
responders at 1 mg/kg [1]: 71.4%
Time required for ventricular extrasystole to occur ([2]; 5 mg/kg via cervical vein): 31.0 min
Time required for ventricular fibrillation to occur ([2]; 5 mg/kg via cervical vein): 38.5 min
Time required for cardiac arrest to occur ([2]; 5 mg/kg via cervical vein): 39.5 min
Time required for ventricular extrasystole to occur ([2]; 10 mg/kg via cervical vein): 38.1 min
Time required for ventricular fibrillation to occur ([2]; 10 mg/kg via cervical vein): 43.4 min
Time required for cardiac arrest to occur ([2]; 10 mg/kg via cervical vein): 48.7 min
Time required for ventricular extrasystole to occur ([3]; 5 mg/kg intravenously): 25.5 min
Time required for ventricular fibrillation to occur ([3]; 5 mg/kg intravenously): 36.5 min
Percent inhibition (contractive reaction of acetylcholine) (Acetylcholine): 7%
Blood sugar level, 0 hr (mean ± S.E.) (Blood Sugar Level; 50 mg/kg perorally): 77.6 ± 5.5 mg/dL
Blood sugar level, 2 hr (mean ± S.E.) (Blood Sugar Level; 50 mg/kg perorally): 61.3 ± 2.2 mg/dL
Blood sugar level, 4 hr (mean ± S.E.) (Blood Sugar Level; 50 mg/kg perorally): 63.7 ± 4.5 mg/dL
Blood sugar level, 6 hr (mean ± S.E.) (Blood Sugar Level; 50 mg/kg perorally): 64.4 ± 4.4 mg/dL
Blood sugar level, 0 hr (mean ± S.E.) (Blood Sugar Level; 200 mg/kg perorally): 76.1 ± 2.4 mg/dL
Blood sugar level, 2 hr (mean ± S.E.) (Blood Sugar Level; 200 mg/kg perorally): 52.9 ± 3.2 mg/dL
Blood sugar level, 4 hr (mean ± S.E.) (Blood Sugar Level; 200 mg/kg perorally): 58.3 ± 2.6 mg/dL
Blood sugar level, 6 hr (mean ± S.E.) (Blood Sugar Level; 200 mg/kg perorally): 56.8 ± 1.7 mg/dL

CCN(CC)CCCNCCC(=O)Nc1c(C)cccc1C [Compound No. 3, 3-(diethylaminopropylamino)-2',6'-dimethylpropionanilide]
responders at 1 mg/kg [1]: 100%
Time required for ventricular extrasystole to occur ([2]; 10 mg/kg via cervical vein): 34.4 min
Time required for ventricular fibrillation to occur ([2]; 10 mg/kg via cervical vein): 42.2 min
Time required for cardiac arrest to occur ([2]; 10 mg/kg via cervical vein): 48.4 min
Time required for ventricular extrasystole to occur ([3]; 5 mg/kg intravenously): 27.4 min
Time required for ventricular fibrillation to occur ([3]; 5 mg/kg intravenously): > 120.0 min
Percent inhibition (contractive reaction of acetylcholine) (Acetylcholine): 28%

Cc1cccc(C)c1NC(=O)CCNCCNC(C)C [Compound No. 4, 3-(isopropylaminoethylamino)-2', 6'-dimethylpropionanilide]
responders at 1 mg/kg [1]: 100%
Time required for ventricular extrasystole to occur ([2]; 10 mg/kg via cervical vein): 42.5 min
Time required for ventricular fibrillation to occur ([2]; 10 mg/kg via cervical vein): 59.5 min
Time required for cardiac arrest to occur ([2]; 10 mg/kg via cervical vein): 66.5 min
Time required for ventricular extrasystole to occur ([3]; 10 mg/kg intravenously): 34.4 min
Time required for ventricular fibrillation to occur ([3]; 10 mg/kg intravenously): > 120.0 min
Percent inhibition (contractive reaction of acetylcholine) (Acetylcholine): 0%
Blood sugar level, 0 hr (mean ± S.E.) (Blood Sugar Level; 50 mg/kg perorally): 81.2 ± 2.4 mg/dL
Blood sugar level, 2 hr (mean ± S.E.) (Blood Sugar Level; 50 mg/kg perorally): 60.3 ± 3.4 mg/dL
Blood sugar level, 4 hr (mean ± S.E.) (Blood Sugar Level; 50 mg/kg perorally): 57.5 ± 1.6 mg/dL
Blood sugar level, 6 hr (mean ± S.E.) (Blood Sugar Level; 50 mg/kg perorally): 61.5 ± 0.6 mg/dL
Blood sugar level, 0 hr (mean ± S.E.) (Blood Sugar Level; 200 mg/kg perorally): 69.1 ± 2.9 mg/dL
Blood sugar level, 2 hr (mean ± S.E.) (Blood Sugar Level; 200 mg/kg perorally): 57.4 ± 3.0 mg/dL
Blood sugar level, 4 hr (mean ± S.E.) (Blood Sugar Level; 200 mg/kg perorally): 58.5 ± 2.1 mg/dL
Blood sugar level, 6 hr (mean ± S.E.) (Blood Sugar Level; 200 mg/kg perorally): 59.0 ± 1.8 mg/dL

CN1C(=O)CN=C(c2ccccc2)c2cc(Cl)ccc21 [Diazepam]
Time of sleeping (mean ± S.E.) [4]: 136.4 ± 5.8 min

CCN(CC)CC(=O)Nc1c(C)cccc1C [Lidocaine, reference compound]
Percent prevention (ventricular fibrillation), starved ([1]; starved rats, 20 mg/kg i.P.): 77.1%
drug level in blood [5]: too low to attain the desired effectiveness

Cc1cccc(C)c1NC(=O)CCNCCCN(C(C)C)C(C)C [compound 11]
responders at 1 mg/kg [1]: 85.7%
Time required for ventricular extrasystole to occur ([2]; 10 mg/kg via cervical vein): 35.3 min
Time required for ventricular fibrillation to occur ([2]; 10 mg/kg via cervical vein): 45.3 min
Time required for cardiac arrest to occur ([2]; 10 mg/kg via cervical vein): 52.4 min
Time required for ventricular extrasystole to occur ([3]; 5 mg/kg intravenously): 26.2 min
Time required for ventricular fibrillation to occur ([3]; 5 mg/kg intravenously): 73.8 min
Time required for ventricular extrasystole to occur ([3]; 10 mg/kg intravenously): 44.2 min
Time required for ventricular fibrillation to occur ([3]; 10 mg/kg intravenously): > 120.0 min
Percent inhibition (contractive reaction of acetylcholine) (Acetylcholine): 0%
Blood sugar level, 0 hr (mean ± S.E.) (Blood Sugar Level; 50 mg/kg perorally): 71.3 ± 2.9 mg/dL
Blood sugar level, 2 hr (mean ± S.E.) (Blood Sugar Level; 50 mg/kg perorally): 61.8 ± 3.1 mg/dL
Blood sugar level, 4 hr (mean ± S.E.) (Blood Sugar Level; 50 mg/kg perorally): 64.0 ± 2.2 mg/dL
Blood sugar level, 6 hr (mean ± S.E.) (Blood Sugar Level; 50 mg/kg perorally): 63.8 ± 1.5 mg/dL
Blood sugar level, 0 hr (mean ± S.E.) (Blood Sugar Level; 200 mg/kg perorally): 62.3 ± 2.7 mg/dL
Blood sugar level, 2 hr (mean ± S.E.) (Blood Sugar Level; 200 mg/kg perorally): 52.0 ± 3.5 mg/dL
Blood sugar level, 4 hr (mean ± S.E.) (Blood Sugar Level; 200 mg/kg perorally): 53.8 ± 3.8 mg/dL
Blood sugar level, 6 hr (mean ± S.E.) (Blood Sugar Level; 200 mg/kg perorally): 63.6 ± 1.5 mg/dL

Cc1cccc(C)c1NC(=O)CCNCCCN(CC(C)C)CC(C)C [compound 12]
responders at 1 mg/kg [1]: 85.7%
Time required for ventricular extrasystole to occur ([2]; 10 mg/kg via cervical vein): 45.4 min
Time required for ventricular fibrillation to occur ([2]; 10 mg/kg via cervical vein): 48.2 min
Time required for cardiac arrest to occur ([2]; 10 mg/kg via cervical vein): 56.6 min
Time required for ventricular extrasystole to occur ([3]; 5 mg/kg intravenously): 26.2 min
Time required for ventricular fibrillation to occur ([3]; 5 mg/kg intravenously): 30.2 min

Cc1cccc(C)c1NC(=O)CCNCCCNC1CCCCCCC1 [compound 14]
responders at 1 mg/kg [1]: 85.7%

Cc1cccc(C)c1NC(=O)CCCNCCCN(CC(C)C)CC(C)C [compound 18]
Percent inhibition (contractive reaction of acetylcholine) (Acetylcholine): 0%

CCc1cccc(CC)c1NC(=O)CCNCCCN(CC(C)C)CC(C)C [compound 31]
responders at 1 mg/kg [1]: 100%
Time required for ventricular extrasystole to occur ([2]; 5 mg/kg via cervical vein): 34.1 min
Time required for ventricular fibrillation to occur ([2]; 5 mg/kg via cervical vein): 51.0 min
Time required for cardiac arrest to occur ([2]; 5 mg/kg via cervical vein): 57.8 min
Time required for ventricular extrasystole to occur ([3]; 5 mg/kg intravenously): 26.1 min
Time required for ventricular fibrillation to occur ([3]; 5 mg/kg intravenously): > 90.0 min

CCc1cccc(CC)c1NC(=O)CCNCCCCCN(CC(C)C)CC(C)C [compound 35]
responders at 1 mg/kg [1]: 100%
Time required for ventricular extrasystole to occur ([2]; 5 mg/kg via cervical vein): 45.4 min
Time required for ventricular fibrillation to occur ([2]; 5 mg/kg via cervical vein): 48.4 min
Time required for cardiac arrest to occur ([2]; 5 mg/kg via cervical vein): 56.2 min
Time required for ventricular extrasystole to occur ([3]; 5 mg/kg intravenously): 24.5 min
Time required for ventricular fibrillation to occur ([3]; 5 mg/kg intravenously): 84.5 min
Percent inhibition (contractive reaction of acetylcholine) (Acetylcholine): 9%
